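Results reflect a 48-hour exposure of cells in 96-well plates to compound at five concentrations. The concentration for 50% growth inhibition is given as GI50. TGI marks complete inhibition of growth.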
Each molecule was assayed on HCT-116 colon (assay: NCI-60 cell line screen, 48 h).
C/C(N=NC(=S)N(C)C)=C1\C=CC=CN1O showed a TGI of over 100 µM.
CCCSc1nc(COC(=O)NC)c(COC(=O)NC)n1C showed a TGI of over 100 µM.
Molecule O=C1CCC(O)=C1N=Nc1ccccc1 has a TGI of over 100 µM.
C=C1CCC(CC[C@@H]2CC[C@]3(OC2)O[C@@]2(O)CC[C@]3(C)OC2(C)C)C(C)(C)[C@H]1C/C=C1/C(=O)OC[C@@H]1O (stereo partly specified) gave a TGI of 4.89 µM.
With C[C@]12CC[C@@H]3c4cc(OCC(F)(F)F)c(O)cc4/C(=N/O)C[C@H]3[C@@H]1CC[C@@H]2O the GI50 was 0.0421 µM and the TGI was 15.2 µM.
With Cn1c(=O)c(Cc2ccccc2F)cc2cnc(NC3CCOCC3)nc21 the GI50 was over 25 µM and the TGI was over 25 µM.
In the case of COc1cc(/C=C/c2ccc(OC)c(OC)c2)cc(OC)c1, the TGI is reported as over 100 µM.
Molecule CC1(C)[C@@H](OC(N)=O)[C@H]2O[C@H]2[C@]2(C=O)[C@H]3CC[C@]4(C)[C@@H](c5ccc(=O)oc5)[C@@H](Cl)C[C@]4(O)C3=CC[C@@H]12 has a GI50 of 0.00435 µM and a TGI of 0.00853 µM.
CCCCON(OC(=O)c1ccc2ccc3cccc4ccc1c2c34)C(C)=O showed a GI50 of 22.4 µM and a TGI of 52.3 µM.
Molecule Clc1ccc(C=Nc2ccc3c(c2)Cc2ccccc2-3)c(Cl)c1 has a TGI of over 100 µM.
CN(C)CCN1C(=O)c2ccc3c4c(ccc(c24)C1=O)C(=O)N(CCN=C=S)C3=O was tested, and the GI50 was 0.027 µM and the TGI was 0.134 µM.
COc1ccc2nc(NC(=O)C(=O)C(C#N)c3ccc([N+](=O)[O-])cc3)sc2c1 (stereo unspecified) gave a TGI of over 100 µM.
COc1ccc(/C=C/c2cc(OC)cc(=O)o2)cc1 was tested, and the TGI was over 100 µM.
O=C1CSC(c2ccc(Cl)cc2Cl)N1c1ccc(F)cc1 (stereo unspecified) gave a GI50 of 16.7 µM and a TGI of 30.3 µM.
O=C(O)[C@H](NS(=O)(=O)c1ccc([N+](=O)[O-])cc1)c1ccccc1 was tested, and the TGI was over 100 µM.
Work on S=C1OC2CCCC[C@H]2O1 (stereo partly specified) yielded a TGI of over 100 µM.

What follows are molecules tested on U251 CNS (assay: NCI-60 cell line screen, 48 h).
In the case of C=CCc1ccc(Oc2cc(CC=C)c3c(c2O)O[C@@H](CO)[C@H]3c2ccc(O)c(-c3cc(CC=C)ccc3O)c2)cc1, the TGI is reported as 51.8 µM.
O=S(=O)(Nc1cc(Sc2cccc3cccnc23)c(O)c2ccccc12)c1ccccc1 gave a GI50 of 0.78 µM and a TGI of 24.2 µM.
Work on O=C(NCO)NCOCn1c(=O)n(CO)c(=O)n(CO)c1=O yielded a TGI of over 100 µM.
Work on CN(C)C(=O)[C@H](O)[C@H](Cc1ccccc1)NC(=O)c1cc2cc(Cl)ccc2[nH]1 yielded a GI50 of 17.9 µM and a TGI of 42.5 µM.
For CC(C)(C[C@H]1CN(S(=O)(=O)c2cccc(C(F)(F)F)c2)c2cc(-c3cc(F)cc(OC(F)F)c3)ccc2O1)C(=O)O, the GI50 was 4.51 µM and the TGI was 17.1 µM.
With Cc1ccc(-c2nc3ccc(Cl)cc3c(=O)n2N2C(=O)CSC2c2ccccc2Cl)cc1 (stereo unspecified) the GI50 was 5.05 µM and the TGI was over 100 µM.
For O=C(O)C1C(Br)(c2ccccc2)C1(Br)c1ccccc1 (stereo unspecified), the TGI was over 100 µM.
C#Cc1c(I)n(C2OC(CO[Si](C)(C)C(C)(C)C)C3OC(C)(C)OC32)c(=O)[nH]c1=O (stereo unspecified) showed a GI50 of 19.5 µM and a TGI of 65.8 µM.
CCSc1nc(SCC)c2cn[nH]c2n1 was tested, and the GI50 was 65.7 µM and the TGI was over 100 µM.
With ClCC[N+]12CC[N+](CCCl)(CC1)C2 the TGI was over 100 µM.
COc1ccc(CCN2COc3c([C@@H](C)CCC=C(C)C)ccc(C)c3C2)cc1OC was tested, and the GI50 was 1.91 µM and the TGI was 4.47 µM.
COc1cc(C(=O)c2cc(C)c3[nH]c4ccc(C)cc4c3c2C)cc(OC)c1OC was tested, and the GI50 was under 0.01 µM and the TGI was over 27.1 µM.
C=C1C(=O)OC2/C=C(\COC(C)=O)CCC(OC(C)=O)C3=CC(OC3=O)C12 (stereo unspecified) showed a TGI of 33.9 µM.
Molecule Cc1ccc2[nH]c(O)c(N=Nc3ccc(S(N)(=O)=O)cc3)c2c1 has a GI50 of 12.8 µM and a TGI of over 25 µM.
Work on C/C(N=NC(=S)N(C)C)=C1\C=CC=CN1O yielded a TGI of over 100 µM.
For CCCSc1nc(COC(=O)NC)c(COC(=O)NC)n1C, the TGI was over 100 µM.
Work on O=C1CCC(O)=C1N=Nc1ccccc1 yielded a TGI of over 100 µM.
With C=C1CCC(CC[C@@H]2CC[C@]3(OC2)O[C@@]2(O)CC[C@]3(C)OC2(C)C)C(C)(C)[C@H]1C/C=C1/C(=O)OC[C@@H]1O (stereo partly specified) the TGI was 6.29 µM.
Molecule C[C@]12CC[C@@H]3c4cc(OCC(F)(F)F)c(O)cc4/C(=N/O)C[C@H]3[C@@H]1CC[C@@H]2O has a TGI of 1.07 µM.
Cn1c(=O)c(Cc2ccccc2F)cc2cnc(NC3CCOCC3)nc21 gave a GI50 of over 25 µM and a TGI of over 25 µM.
COc1cc(/C=C/c2ccc(OC)c(OC)c2)cc(OC)c1 gave a TGI of 69 µM.
For CC1(C)[C@@H](OC(N)=O)[C@H]2O[C@H]2[C@]2(C=O)[C@H]3CC[C@]4(C)[C@@H](c5ccc(=O)oc5)[C@@H](Cl)C[C@]4(O)C3=CC[C@@H]12, the GI50 was 0.00484 µM and the TGI was 0.00952 µM.
Molecule CCCCON(OC(=O)c1ccc2ccc3cccc4ccc1c2c34)C(C)=O has a GI50 of 18.1 µM and a TGI of 36.5 µM.
Clc1ccc(C=Nc2ccc3c(c2)Cc2ccccc2-3)c(Cl)c1 was tested, and the TGI was over 100 µM.
Work on CN(C)CCN1C(=O)c2ccc3c4c(ccc(c24)C1=O)C(=O)N(CCN=C=S)C3=O yielded a GI50 of 0.0347 µM and a TGI of 0.153 µM.
COc1ccc2nc(NC(=O)C(=O)C(C#N)c3ccc([N+](=O)[O-])cc3)sc2c1 (stereo unspecified) was tested, and the TGI was over 100 µM.
COc1ccc(/C=C/c2cc(OC)cc(=O)o2)cc1 gave a TGI of 76.9 µM.
O=C1CSC(c2ccc(Cl)cc2Cl)N1c1ccc(F)cc1 (stereo unspecified) showed a GI50 of 17.8 µM and a TGI of 31.7 µM.
In the case of O=C(O)[C@H](NS(=O)(=O)c1ccc([N+](=O)[O-])cc1)c1ccccc1, the TGI is reported as over 100 µM.
For S=C1OC2CCCC[C@H]2O1 (stereo partly specified), the TGI was over 100 µM.

These molecules were tested on NCI-H23 lung (assay: NCI-60 cell line screen, 48 h).
Molecule C=CCc1ccc(Oc2cc(CC=C)c3c(c2O)O[C@@H](CO)[C@H]3c2ccc(O)c(-c3cc(CC=C)ccc3O)c2)cc1 has a TGI of over 100 µM.
In the case of O=S(=O)(Nc1cc(Sc2cccc3cccnc23)c(O)c2ccccc12)c1ccccc1, the GI50 is reported as 1.93 µM and the TGI is reported as 12.8 µM.
O=C(NCO)NCOCn1c(=O)n(CO)c(=O)n(CO)c1=O showed a TGI of 36.3 µM.
For CN(C)C(=O)[C@H](O)[C@H](Cc1ccccc1)NC(=O)c1cc2cc(Cl)ccc2[nH]1, the GI50 was 25.8 µM and the TGI was over 100 µM.
Molecule CC(C)(C[C@H]1CN(S(=O)(=O)c2cccc(C(F)(F)F)c2)c2cc(-c3cc(F)cc(OC(F)F)c3)ccc2O1)C(=O)O has a GI50 of 9.4 µM and a TGI of 26.3 µM.
Cc1ccc(-c2nc3ccc(Cl)cc3c(=O)n2N2C(=O)CSC2c2ccccc2Cl)cc1 (stereo unspecified) showed a GI50 of over 100 µM and a TGI of over 100 µM.
O=C(O)C1C(Br)(c2ccccc2)C1(Br)c1ccccc1 (stereo unspecified) showed a TGI of over 100 µM.
C#Cc1c(I)n(C2OC(CO[Si](C)(C)C(C)(C)C)C3OC(C)(C)OC32)c(=O)[nH]c1=O (stereo unspecified) was tested, and the GI50 was 18.9 µM and the TGI was 39.6 µM.
With CCSc1nc(SCC)c2cn[nH]c2n1 the GI50 was over 100 µM and the TGI was over 100 µM.
With ClCC[N+]12CC[N+](CCCl)(CC1)C2 the TGI was over 100 µM.
For COc1ccc(CCN2COc3c([C@@H](C)CCC=C(C)C)ccc(C)c3C2)cc1OC, the GI50 was 2.55 µM and the TGI was 6.08 µM.
For COc1cc(C(=O)c2cc(C)c3[nH]c4ccc(C)cc4c3c2C)cc(OC)c1OC, the GI50 was under 0.01 µM and the TGI was over 100 µM.
Work on C=C1C(=O)OC2/C=C(\COC(C)=O)CCC(OC(C)=O)C3=CC(OC3=O)C12 (stereo unspecified) yielded a TGI of 20.7 µM.
With Cc1ccc2[nH]c(O)c(N=Nc3ccc(S(N)(=O)=O)cc3)c2c1 the GI50 was over 21.5 µM and the TGI was over 25 µM.
Work on C/C(N=NC(=S)N(C)C)=C1\C=CC=CN1O yielded a TGI of over 100 µM.
CCCSc1nc(COC(=O)NC)c(COC(=O)NC)n1C gave a TGI of over 100 µM.
O=C1CCC(O)=C1N=Nc1ccccc1 gave a TGI of over 100 µM.
C=C1CCC(CC[C@@H]2CC[C@]3(OC2)O[C@@]2(O)CC[C@]3(C)OC2(C)C)C(C)(C)[C@H]1C/C=C1/C(=O)OC[C@@H]1O (stereo partly specified) showed a TGI of 5.2 µM.
C[C@]12CC[C@@H]3c4cc(OCC(F)(F)F)c(O)cc4/C(=N/O)C[C@H]3[C@@H]1CC[C@@H]2O was tested, and the GI50 was 0.0787 µM and the TGI was 12.7 µM.
Work on Cn1c(=O)c(Cc2ccccc2F)cc2cnc(NC3CCOCC3)nc21 yielded a GI50 of over 25 µM and a TGI of over 25 µM.
Work on COc1cc(/C=C/c2ccc(OC)c(OC)c2)cc(OC)c1 yielded a TGI of 65.3 µM.
For CC1(C)[C@@H](OC(N)=O)[C@H]2O[C@H]2[C@]2(C=O)[C@H]3CC[C@]4(C)[C@@H](c5ccc(=O)oc5)[C@@H](Cl)C[C@]4(O)C3=CC[C@@H]12, the GI50 was 0.00379 µM and the TGI was 0.0111 µM.
Molecule CCCCON(OC(=O)c1ccc2ccc3cccc4ccc1c2c34)C(C)=O has a GI50 of 17 µM and a TGI of 35.5 µM.
Clc1ccc(C=Nc2ccc3c(c2)Cc2ccccc2-3)c(Cl)c1 showed a TGI of over 100 µM.
CN(C)CCN1C(=O)c2ccc3c4c(ccc(c24)C1=O)C(=O)N(CCN=C=S)C3=O showed a GI50 of 0.162 µM and a TGI of 0.417 µM.
For COc1ccc2nc(NC(=O)C(=O)C(C#N)c3ccc([N+](=O)[O-])cc3)sc2c1 (stereo unspecified), the TGI was over 100 µM.
Molecule COc1ccc(/C=C/c2cc(OC)cc(=O)o2)cc1 has a TGI of over 100 µM.
Work on O=C1CSC(c2ccc(Cl)cc2Cl)N1c1ccc(F)cc1 (stereo unspecified) yielded a GI50 of 16.6 µM and a TGI of 31.2 µM.
With O=C(O)[C@H](NS(=O)(=O)c1ccc([N+](=O)[O-])cc1)c1ccccc1 the TGI was over 100 µM.
S=C1OC2CCCC[C@H]2O1 (stereo partly specified) gave a TGI of over 100 µM.

— PubChem BioAssay (NCI)
